Laboratory results published in PMC4973094, “Anti-cholinesterases and memory improving effects of Vietnamese Xylia xylocarpa” (Chemistry Central Journal, 2016).
Where a name gives a salt, the structure may show the parent alone.

What follows are compounds tested on scopolamine-induced memory deficit in mice (assay: Y-maze test, scopolamine-induced memory impairment). Conditions: scopolamine 1.5 mg/kg i.p. alone; versus vehicle-treated control group, P < 0.001.
Assay type: in vivo, male Swiss mice
In the case of `CN1[C@@H]2C[C@@H](OC(=O)[C@H](CO)c3ccccc3)C[C@H]1[C@@H]1O[C@@H]12` [scopolamine, scopolamine hydrobromide], the “Spontaneous alternation (%) in Y-maze” value is reported as “significantly lower”.

The compounds below were run against T1, Acetylcholinesterase (AChE) (EC 3.1.1.7) (Homo sapiens, UniProt P22303) (assay: AChE inhibition assay (modified Ellman's method)). Conditions: not given.
T1 construct: purchased Sigma-Aldrich Pte Ltd (Nucleos, Singapore)
T1 sequence (P22303 32-614): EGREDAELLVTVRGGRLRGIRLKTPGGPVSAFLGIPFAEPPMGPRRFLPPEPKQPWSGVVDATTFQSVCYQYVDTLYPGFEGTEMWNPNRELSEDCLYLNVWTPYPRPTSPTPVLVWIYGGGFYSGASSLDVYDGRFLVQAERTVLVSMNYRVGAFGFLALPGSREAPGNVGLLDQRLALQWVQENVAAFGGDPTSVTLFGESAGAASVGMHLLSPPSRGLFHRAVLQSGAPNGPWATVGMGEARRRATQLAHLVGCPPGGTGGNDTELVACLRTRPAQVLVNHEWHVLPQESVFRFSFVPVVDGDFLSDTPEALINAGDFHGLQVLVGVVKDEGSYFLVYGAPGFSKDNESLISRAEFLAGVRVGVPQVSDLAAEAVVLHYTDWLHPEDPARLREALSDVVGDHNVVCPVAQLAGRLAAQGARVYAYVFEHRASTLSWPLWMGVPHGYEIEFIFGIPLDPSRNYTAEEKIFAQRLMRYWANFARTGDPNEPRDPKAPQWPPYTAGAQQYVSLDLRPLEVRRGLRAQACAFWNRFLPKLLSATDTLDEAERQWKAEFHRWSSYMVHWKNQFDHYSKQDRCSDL
Assay type: biochemical
Experimental: (§1) Male Swiss mice (age, 8 weeks; weight, 25–27 g) were purchased from Military Medical University (Hanoi, Vietnam) and housed in a regulated environment (21 ± 2 °C, 12 h light/dark cycle, light period starting at 7 AM) with free access to food and water. Acetylcholinesterase (AChE) (EC 3.1.1.7), butyrylcholinesterase (BChE) (EC 3.1.1.8) and scopolamine hydrobromide (>98 %) were obtained from Sigma-Aldrich Pte Ltd (Nucleos, Singapore). […] Other chemicals were of the highest grade available.
(§2) The inhibitory activities of the ChEs were measured using a modified Ellman’s method. Acetylthiocholine and butyrylthiocholine were used as substrates to examine the inhibitory effect of sample on the AChE and BChE action, respectively. The reaction mixture contained: 140 μL of sodium phosphate buffer (pH 8.0); 20 μL of tested sample solution; and 20 µL of either AChE or BChE solution (5 units/mL), which were mixed and incubated at room temperature for 15 min. The reactions were initiated by the addition of 10 µL of dithiobisnitrobenzoate (DTNB) and 10 μL of either acetylthiocholine or butyrylthiocholine, respectively. The hydrolysis of AChE or BChE was monitored at 412 nm based on the formation of yellow 5-thio-2-nitrobenzoate anion from the reaction of DTNB with thiocholine, which was released by enzymatic hydrolysis of either AChE or BChE. […] The reaction was performed in triplicate and recorded in 96-well microplates using a microplate reader (VersaMax ELISA, USA). Percent inhibition was calculated from (1–S/E) × 100, where E and S were the enzyme activities […] the tested sample, respectively.
Work on `CC1(C)OC(=O)C23CCC1C2CCC1(C)C3CCC2C3(C)CCC(O)C(C)(C)C3CCC21C` (stereo not drawn) [Compound 1, (3β)-hopan-3-ol-28,22-olide] yielded an IC50 of 79.5 ± 1.1 µM.
With `C=C(C)[C@@H]1CC[C@]2(C)CC[C@]3(C)[C@H](CC[C@@H]4[C@@]5(C)CC[C@H](O)C(C)(C)[C@@H]5CC[C@]43C)[C@@H]12` [Compound 2, lupeol] the IC50 was 75.7 ± 3.1 µM.
In the case of `C=C(C)[C@@H]1CC[C@]2(O)CC[C@]3(C)C(CCC4[C@@]5(C)CC[C@H](O)C(C)(C)C5CC[C@]43C)C12` (stereo partly drawn) [Compound 3, 28-norlup-20(29)-ene-3β,17β-diol], the IC50 is reported as > 100 µM.
With `C=C(C)[C@@H]1CC[C@]2(CO)CC[C@]3(C)[C@H](CC[C@@H]4[C@@]5(C)CC[C@H](O)C(C)(C)[C@@H]5CC[C@]43C)[C@@H]12` [Compound 4, betulin] the IC50 was 93.4 ± 2.2 µM.
With `C=C(C)[C@@H]1CC[C@]2(OO)CC[C@]3(C)C(CCC4[C@@]5(C)CC[C@H](O)C(C)(C)C5CC[C@]43C)C12` (stereo partly drawn) [Compound 5, 28-norlup-20(29)-ene-3β-hydroxy-17β-hydroperoxide] the IC50 was 83.9 ± 0.6 µM.
`C=C(C)[C@@H]1CC[C@]2(C(=O)O)CC[C@]3(C)[C@H](CC[C@@H]4[C@@]5(C)CC[C@H](O)C(C)(C)[C@@H]5CC[C@]43C)[C@@H]12` [Compound 7, betulinic acid] was tested, and the IC50 was 62 ± 2.2 µM.
For `CC1(C)CC[C@]23CC[C@]4(C)C(CCC5[C@@]6(C)CC[C@H](O)C(C)(C)C6CC[C@]54C)C2[C@H]1OC3=O` (stereo partly drawn) [Compound 10, 3β-hydroxy-18α-olean-28,19β-olide], the IC50 was > 100 µM.
`CC1(C)CC[C@]23CC[C@]4(C)C(CCC5[C@@]6(C)CC[C@H](OC=O)C(C)(C)C6CC[C@]54C)C2[C@H]1OC3=O` (stereo partly drawn) [Compound 11, 3β-formyloxy-l8α-oleanano-28,19β-lactone] showed an IC50 of 86.5 ± 0.6 µM.
For `Cc1cc(O)c2c(c1)C(=O)c1cccc(O)c1C2=O` [Compound 12, chrysophanol], the IC50 was 77.3 ± 0.8 µM.
`COC1=CC(=O)C=C(OC)C1=O` [Compound 13, 2,6-dimethoxyl-p-benzoquinone] gave an IC50 of 54.4 ± 3.4 µM.
For `COc1cc(/C=C/C(=O)O)ccc1O` [Compound 14, ferulic acid], the IC50 was > 100 µM.
With `COC(=O)/C=C/c1ccc(O)c(OC)c1` [Compound 15, methyl ferulate] the IC50 was > 100 µM.
`COC(=O)C(Cc1ccc(O)cc1)C(=O)OC` [Compound 16, methyl 3-(4-hydroxyphenyl)-2-methoxycarbonylpropionate] was tested, and the IC50 was > 100 µM.
In the case of `O=C(O)c1ccc(O)c(O)c1` [Compound 17, protocatechuic acid], the IC50 is reported as > 100 µM.
`COc1cc(C(=O)O)ccc1O` [Compound 18, vanillic acid] was tested, and the IC50 was > 100 µM.
In the case of `COc1cc(C=O)ccc1O` [Compound 19, vanillin], the IC50 is reported as > 100 µM.
In the case of `COC(=O)c1cc(O)c(O)c(O)c1` [Compound 20, methyl gallate], the IC50 is reported as > 100 µM.
In the case of `COc1cc(C(=O)O)cc(OC)c1O` [Compound 21, syringic acid], the IC50 is reported as > 100 µM.

Same assay, conditions: read-out: IC50 AChE; average of 3 replicates ± SD; substrate acetylthiocholine, pH 8.0
`C=C(C)[C@@H]1CC[C@]2(C(=O)O)CC[C@]3(C)C(CCC4[C@@]5(C)CCC(=O)C(C)(C)C5CC[C@]43C)C12` (some centres unmarked) [Compound 8, betulonic acid] gave an IC50 of 94.6 ± 1.5 µM.

Each compound was assayed on scopolamine-induced memory deficit in mice (assay: Object recognition test, scopolamine-induced recognition impairment). Conditions: scopolamine 1.5 mg/kg i.p. alone.
Assay type: in vivo, male Swiss mice
In the case of `CN1[C@@H]2C[C@@H](OC(=O)[C@H](CO)c3ccccc3)C[C@H]1[C@@H]1O[C@@H]12` [scopolamine, scopolamine hydrobromide], the “Time exploring new versus familiar object, test phase, object recognition test” value is reported as “no total time difference between familiar and new objects”.

These compounds were tested against T2, butyrylcholinesterase (BChE) (EC 3.1.1.8) (Homo sapiens, UniProt P06276) (assay: BChE inhibition assay (modified Ellman's method)). Conditions: average of 3 replicates ± SD; substrate butyrylthiocholine, pH 8.0.
T2 construct: purchased Sigma-Aldrich Pte Ltd (Nucleos, Singapore)
T2 sequence (P06276 29-602, species assumed): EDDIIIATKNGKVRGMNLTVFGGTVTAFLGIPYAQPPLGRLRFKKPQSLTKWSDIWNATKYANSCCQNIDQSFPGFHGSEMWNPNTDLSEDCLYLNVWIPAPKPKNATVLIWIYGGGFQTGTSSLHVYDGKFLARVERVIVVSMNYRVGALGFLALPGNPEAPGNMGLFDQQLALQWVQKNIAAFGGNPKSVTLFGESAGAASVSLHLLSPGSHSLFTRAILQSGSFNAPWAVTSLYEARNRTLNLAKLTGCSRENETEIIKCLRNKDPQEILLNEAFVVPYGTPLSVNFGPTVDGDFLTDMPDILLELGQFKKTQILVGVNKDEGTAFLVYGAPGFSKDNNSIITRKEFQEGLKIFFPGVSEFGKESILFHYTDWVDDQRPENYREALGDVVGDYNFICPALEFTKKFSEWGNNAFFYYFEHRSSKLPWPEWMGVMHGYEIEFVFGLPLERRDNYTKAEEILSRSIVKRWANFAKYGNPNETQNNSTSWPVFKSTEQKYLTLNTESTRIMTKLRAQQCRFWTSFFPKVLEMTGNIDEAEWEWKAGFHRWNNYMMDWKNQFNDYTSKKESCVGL
Assay type: biochemical
Experimental: as §1, §2
In the case of `CC1(C)OC(=O)C23CCC1C2CCC1(C)C3CCC2C3(C)CCC(O)C(C)(C)C3CCC21C` (stereo not drawn) [Compound 1, (3β)-hopan-3-ol-28,22-olide], the IC50 is reported as > 100 µM.
For `C=C(C)[C@@H]1CC[C@]2(C)CC[C@]3(C)[C@H](CC[C@@H]4[C@@]5(C)CC[C@H](O)C(C)(C)[C@@H]5CC[C@]43C)[C@@H]12` [Compound 2, lupeol], the IC50 was > 100 µM.
In the case of `C=C(C)[C@@H]1CC[C@]2(O)CC[C@]3(C)C(CCC4[C@@]5(C)CC[C@H](O)C(C)(C)C5CC[C@]43C)C12` (stereo partly drawn) [Compound 3, 28-norlup-20(29)-ene-3β,17β-diol], the IC50 is reported as > 100 µM.
For `C=C(C)[C@@H]1CC[C@]2(OO)CC[C@]3(C)C(CCC4[C@@]5(C)CC[C@H](O)C(C)(C)C5CC[C@]43C)C12` (stereo partly drawn) [Compound 5, 28-norlup-20(29)-ene-3β-hydroxy-17β-hydroperoxide], the IC50 was > 100 µM.
For `C=C(C)[C@@H]1CC[C@]2(C(=O)O)CC[C@]3(C)C(CCC4[C@@]5(C)CCC(=O)C(C)(C)C5CC[C@]43C)C12` (some centres unmarked) [Compound 8, betulonic acid], the IC50 was > 100 µM.
With `CC1(C)CC[C@]23CC[C@]4(C)C(CCC5[C@@]6(C)CC[C@H](OC=O)C(C)(C)C6CC[C@]54C)C2[C@H]1OC3=O` (stereo partly drawn) [Compound 11, 3β-formyloxy-l8α-oleanano-28,19β-lactone] the IC50 was > 100 µM.
With `Cc1cc(O)c2c(c1)C(=O)c1cccc(O)c1C2=O` [Compound 12, chrysophanol] the IC50 was > 100 µM.
With `COC1=CC(=O)C=C(OC)C1=O` [Compound 13, 2,6-dimethoxyl-p-benzoquinone] the IC50 was 42.7 ± 7.6 µM.
For `COc1cc(/C=C/C(=O)O)ccc1O` [Compound 14, ferulic acid], the IC50 was > 100 µM.
With `COC(=O)C(Cc1ccc(O)cc1)C(=O)OC` [Compound 16, methyl 3-(4-hydroxyphenyl)-2-methoxycarbonylpropionate] the IC50 was > 100 µM.
In the case of `COc1cc(C(=O)O)ccc1O` [Compound 18, vanillic acid], the IC50 is reported as > 100 µM.

These compounds were tested on scopolamine-induced memory deficit in mice (assay: Morris water maze test, scopolamine-induced memory dysfunction). Conditions: scopolamine 1.5 mg/kg i.p. alone; versus vehicle-treated controls, P < 0.05.
Assay type: in vivo, male Swiss mice
In the case of `CN1[C@@H]2C[C@@H](OC(=O)[C@H](CO)c3ccccc3)C[C@H]1[C@@H]1O[C@@H]12` [scopolamine, scopolamine hydrobromide], the “Time in the target quadrant, probe trial day 8, Morris water maze” value is reported as “significantly reduced”.

Same assay, conditions: scopolamine 1.5 mg/kg i.p. alone; versus vehicle-treated controls, days 3 to 7, P < 0.01 and P < 0.001
In the case of `CN1[C@@H]2C[C@@H](OC(=O)[C@H](CO)c3ccccc3)C[C@H]1[C@@H]1O[C@@H]12` [scopolamine, scopolamine hydrobromide], the “Escape latencies, training trials, Morris water maze” value is reported as “longer” and the “Swimming distances, training trials, Morris water maze” value is reported as “longer”.
